According to PubChem BioAssay AID2060499 (Molecular Pharmacology Branch, DTP, NCI, 2025):

Test system: 777334-354-R2-J4-PDC tumor spheroids with HUVEC/MSC, viability
Assay: Anticancer human tumor 777334-354-R2-J4-PDC patient-derived pancreatic adenocarcinoma cell line growth inhibition [GQUAD]
Conditions: for IC50: curve of first compound; for viability, T/C: stronger effect = lower value
Summary of the method: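 Tumor cells were grown as complex spheroids with HUVEC endothelial cells and mesenchymal stem cells as stroma. G-quadruplex stabilizers were combined with targeted agents over half-log dilutions from near the clinical Cmax, or from 10 microM.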
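Further: spheroids exposed to compounds for 7 days before readout.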

CCCS(=O)(=O)Nc1ccc(F)c(C(=O)c2c[nH]c3ncc(-c4ccc(Cl)cc4)cc23)c1F + Cc1[nH]c2ccc(F)cc2c1-c1nc2c3cccnc3c3ncccc3c2[nH]1 gave an IC50 (second compound 0.0316 µM) of 7.75 µM, an IC50 (second compound 0.1 µM) of 8.35 µM and an IC50 (second compound 0.316 µM) of 7.78 µM. For the same compound, the IC50 (second compound 1 µM) was 7.02 µM, the IC50 (second compound 3.16 µM) was less than 0.0316 µM and the IC50 (second compound 10 µM) was less than 0.0316 µM. For the same compound, the viability, T/C (second compound 0.0316 µM, first compound 0.0316 µM) was 108%, the viability, T/C (second compound 0.0316 µM, first compound 0.1 µM) was 108% and the viability, T/C (second compound 0.0316 µM, first compound 0.316 µM) was 114%. It also gave a viability, T/C (second compound 0.0316 µM, first compound 1 µM) of 111%, a viability, T/C (second compound 0.0316 µM, first compound 3.16 µM) of 124% and a viability, T/C (second compound 0.0316 µM, first compound 10 µM) of 32%. It also gave a viability, T/C (second compound 0.1 µM, first compound 0.0316 µM) of 111%, a viability, T/C (second compound 0.1 µM, first compound 0.1 µM) of 104% and a viability, T/C (second compound 0.1 µM, first compound 0.316 µM) of 109%. For the same compound, the viability, T/C (second compound 0.1 µM, first compound 1 µM) was 122%, the viability, T/C (second compound 0.1 µM, first compound 3.16 µM) was 130% and the viability, T/C (second compound 0.1 µM, first compound 10 µM) was 38%. It also gave a viability, T/C (second compound 0.316 µM, first compound 0.0316 µM) of 94.7%, a viability, T/C (second compound 0.316 µM, first compound 0.1 µM) of 102% and a viability, T/C (second compound 0.316 µM, first compound 0.316 µM) of 96.2%. The viability, T/C (second compound 0.316 µM, first compound 1 µM) was 126%, the viability, T/C (second compound 0.316 µM, first compound 3.16 µM) was 117% and the viability, T/C (second compound 0.316 µM, first compound 10 µM) was 33.9%. For the same compound, the viability, T/C (second compound 1 µM, first compound 0.0316 µM) was 79.8%, the viability, T/C (second compound 1 µM, first compound 0.1 µM) was 99.4% and the viability, T/C (second compound 1 µM, first compound 0.316 µM) was 92.4%. For the same compound, the viability, T/C (second compound 1 µM, first compound 1 µM) was 109%, the viability, T/C (second compound 1 µM, first compound 3.16 µM) was 111% and the viability, T/C (second compound 1 µM, first compound 10 µM) was 28.5%. For the same compound, the viability, T/C (second compound 3.16 µM, first compound 0.0316 µM) was 50.2%, the viability, T/C (second compound 3.16 µM, first compound 0.1 µM) was 46.1% and the viability, T/C (second compound 3.16 µM, first compound 0.316 µM) was 33.2%. It also gave a viability, T/C (second compound 3.16 µM, first compound 1 µM) of 30.6%, a viability, T/C (second compound 3.16 µM, first compound 3.16 µM) of 38.5% and a viability, T/C (second compound 3.16 µM, first compound 10 µM) of 13.8%. It also gave a viability, T/C (second compound 10 µM, first compound 0.0316 µM) of 44.3%, a viability, T/C (second compound 10 µM, first compound 0.1 µM) of 31.9% and a viability, T/C (second compound 10 µM, first compound 0.316 µM) of 43.8%. It also gave a viability, T/C (second compound 10 µM, first compound 1 µM) of 28.8%, a viability, T/C (second compound 10 µM, first compound 3.16 µM) of 28.4% and a viability, T/C (second compound 10 µM, first compound 10 µM) of 15.8%.
